We go through 35 compounds from patent US8173682B2, “Substituted pyridones as inhibitors of poly(ADP-ribose) polymerase (PARP)” (Aventis Pharmaceuticals Inc., priority 2004, dated 2012).

This test concerns the target recombinantly expressed human PARP-1 enzyme (Homo sapiens, UniProt P09874). Kind of test: PARP enzyme assay, Method B (tritium-labeled NAD incorporation). It counts as biochemical. The settings on record: Method B; 200 μM NAD, room temperature 1 hour, pH 8.0; read-out: IC50 (μM)/Method B. Here is the method:
Method B: PARP Enzyme Assay:
The IC50 is determined in this method by incubating the substances to be tested with the DNA-activated, recombinantly expressed and purified PARP-1 enzyme. Specifically, various concentrations of the test substance are incubated in 50 μL of reaction solution, which contains 50 mM Tris, 5 mM MgCl2, 1 mM DTT, 200 μM NAD, 0.1 m Ci/mL tritium-labeled NAD, 0.1 mg/mL DNA, 0.1 mg/mL histones, 2 μg/mL recombinantly expressed human PARP-1 enzyme, pH=8.0, at room temperature for 1 hour. The reaction is stopped by adding 150 μL of 20% trichloroacetic acid, and the radiolabeled protein constituents are precipitated. After incubation on ice for 10 minutes, the labeled, insoluble constituents are separated off through a glass fiber filter and, after washing with 20% trichloroacetic acid three times, the radioactivity incorporated by the PARP-1 enzyme is measured by radioluminescence. Consideration of the incorporation rates determined in this way as a function of the concentration of the test substance results in IC50 as the concentration of the test substance which reduces the incorporation rate to half the maximum value attainable (incubation without inhibitor).
The IC50 (fifty percent inhibitory concentration of the test substance in a solution—expressed at micromolar (μM) concentration) measured in accordance with these procedures for the compounds of this invention are summarized in Table 1.

Structures can show the parent of a compound that is named as a salt.

recombinantly expressed human PARP-1 enzyme, sequence (P09874 whole entry): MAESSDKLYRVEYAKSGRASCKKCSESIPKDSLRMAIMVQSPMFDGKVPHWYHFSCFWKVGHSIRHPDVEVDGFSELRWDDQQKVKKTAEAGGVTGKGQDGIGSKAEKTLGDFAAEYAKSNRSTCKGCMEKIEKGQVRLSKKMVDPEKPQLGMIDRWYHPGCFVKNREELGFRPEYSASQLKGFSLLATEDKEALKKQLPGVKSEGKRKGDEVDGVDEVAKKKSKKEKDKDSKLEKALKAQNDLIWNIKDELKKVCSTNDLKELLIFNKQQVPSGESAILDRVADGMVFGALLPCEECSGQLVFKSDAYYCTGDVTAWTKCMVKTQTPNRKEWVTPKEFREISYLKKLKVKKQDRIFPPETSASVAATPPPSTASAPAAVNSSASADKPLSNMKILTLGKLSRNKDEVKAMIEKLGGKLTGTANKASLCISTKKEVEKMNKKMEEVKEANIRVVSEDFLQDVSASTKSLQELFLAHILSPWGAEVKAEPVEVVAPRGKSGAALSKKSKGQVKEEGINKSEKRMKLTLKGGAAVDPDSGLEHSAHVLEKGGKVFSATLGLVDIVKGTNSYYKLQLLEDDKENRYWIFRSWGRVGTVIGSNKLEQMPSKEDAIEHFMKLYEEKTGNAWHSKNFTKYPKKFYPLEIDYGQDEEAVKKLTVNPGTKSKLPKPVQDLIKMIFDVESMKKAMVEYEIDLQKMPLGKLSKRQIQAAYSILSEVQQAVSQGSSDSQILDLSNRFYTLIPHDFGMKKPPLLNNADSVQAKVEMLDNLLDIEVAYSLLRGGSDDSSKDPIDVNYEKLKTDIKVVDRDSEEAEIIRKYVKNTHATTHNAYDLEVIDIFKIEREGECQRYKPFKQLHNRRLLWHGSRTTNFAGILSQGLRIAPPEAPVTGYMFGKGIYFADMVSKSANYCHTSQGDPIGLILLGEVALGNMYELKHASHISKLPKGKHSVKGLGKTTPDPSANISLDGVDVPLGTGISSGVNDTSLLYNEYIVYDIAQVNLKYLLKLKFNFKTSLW

For the compound `CCc1cc(-c2ccc(S(=O)(=O)N3CCN(c4ncccn4)CC3)s2)c(C)[nH]c1=O` [Example 117, 3-Ethyl-6-methyl-5-[5-(4-pyrimidin-2-yl-piperazine-1-sulfonyl)thiophen-2-yl]-1H-pyridin-2-one hydrochloride], the IC50 was 25.5 µM.
With `CCc1cc(-c2ccc(S(=O)(=O)NCc3ccccc3)s2)c(C)[nH]c1=O` [Example 122A, 5-(5-Ethyl-2-methyl-6-oxo-1,6-dihydro-pyridin-3-yl)-thiophene-2-sulfonic acid benzylamide], the IC50 is 1.22 µM.
Next, `CCc1cc(-c2ccc(S(=O)(=O)NCc3ccc(OC)cc3)s2)c(C)[nH]c1=O` [Example 122B, 5-(5-Ethyl-2-methyl-6-oxo-1,6-dihydro-pyridin-3-yl)-thiophene-2-sulfonic acid 4-methoxy-benzylamide]: 0.13 µM; `CCc1cc(-c2ccc(S(=O)(=O)NCc3ccc(S(C)(=O)=O)cc3)s2)c(C)[nH]c1=O` [Example 122C, 5-(5-Ethyl-2-methyl-6-oxo-1,6-dihydro-pyridin-3-yl)-thiophene-2-sulfonic acid 4-methanesulfonyl-benzylamide]: 0.86 µM; `CCc1cc(-c2ccc(S(=O)(=O)NCc3c[nH]c4ccccc34)s2)c(C)[nH]c1=O` [Example 122D, 5-(5-Ethyl-2-methyl-6-oxo-1,6-dihydro-pyridin-3-yl)-thiophene-2-sulfonic acid (1H-indol-3-ylmethyl)-amide]: 0.06 µM.
For `CCc1cc(-c2ccc(CNCc3ccccc3)o2)c(C)[nH]c1=O` [Example 123, 5-[5-(Benzylamino-methyl)-furan-2-yl]-3-ethyl-6-methyl-1H-pyridin-2-one hydrochloride], the IC50 was 0.58 µM.
To `CCc1cc(-c2ccc(CN(C)Cc3ccccc3)o2)c(C)[nH]c1=O` [Example 179, 5-{5-[(Benzylmethylamino)methyl]furan-2-yl)-3-ethyl-6-methyl-1H-pyridin-2-one] belongs 2.11 µM.
Take `CCc1cc(-c2coc(CN3CCCC3)c2)c(C)[nH]c1=O` [Example 181A]: the IC50 was 2.17 µM.
To `CCc1cc(-c2ccc(CN3CCCC3)o2)c(C)[nH]c1=O` [Example 181] belongs 0.49 µM.
To `CCc1cc(-c2ccc(CN(Cc3ccccc3)Cc3cccnc3)o2)c(C)[nH]c1=O` [Example 182A, 5-{5-[(Benzyl-pyridin-3-ylmethyl-amino)-methyl]-furan-2-yl}-3-ethyl-6-methyl-1H-pyridin-2-one] belongs 17.4 µM; to `CCc1cc(-c2ccc(CNCc3ccc(NC(C)=O)cc3)o2)c(C)[nH]c1=O` [Example 182B, N-[4-({[5-(5-Ethyl-2-methyl-6-oxo-1,6-dihydro-pyridin-3-yl)-furan-2-ylmethyl]-amino}-methyl)-phenyl]-acetamide], 0.29 µM.
Next, `CCc1cc(-c2ccc(CNCCc3ccc(Cl)c(S(N)(=O)=O)c3)o2)c(C)[nH]c1=O` [Example 182C, 2-Chloro-5-(2-{[5-(5-ethyl-2-methyl-6-oxo-1,6-dihydro-pyridin-3-yl)-furan-2-ylmethyl]-amino}-ethyl)-benzenesulfonamide]: 0.28 µM; `CCc1cc(-c2ccc(CNCc3cnn(C)c3)o2)c(C)[nH]c1=O` [Example 182D, 3-Ethyl-6-methyl-5-(5-{[(1-methyl-1H-pyrazol-4-ylmethyl)-amino]-methyl}-furan-2-yl)-1H-pyridin-2-one]: 0.3 µM; `CCc1cc(-c2ccc(CNCc3ccccc3OC(F)(F)F)o2)c(C)[nH]c1=O` [Example 182E, 3-Ethyl-6-methyl-5-{5-[(2-trifluoromethoxy-benzylamino)-methyl]-furan-2-yl}-1H-pyridin-2-one]: 1.49 µM.
Take `CCc1cc(-c2coc(CNCc3ccccn3)c2)c(C)[nH]c1=O` [Example 182F, 3-Ethyl-6-methyl-5-(5-{[(pyridin-2-ylmethyl)-amino]-methyl}-furan-3-yl)-1H-pyridin-2-one]: the IC50 was found to be 1.62 µM.
Next, `CCc1cc(-c2cccc(CN3CCCC3)n2)c(C)[nH]c1=O` [Example 182G, 5′-Ethyl-2′-methyl-6-pyrrolidin-1-ylmethyl-1′H-[2,3′]bipyridinyl-6′-one]: 3.33 µM.
On to `CCc1cc(-c2cccc(CNCc3ccccn3)n2)c(C)[nH]c1=O` [Example 182H, 5′-Ethyl-2′-methyl-6-{[(pyridin-2-ylmethyl)-amino]-methyl}-1′H-[2,3′]bipyridinyl-6′-one], for which the IC50 is 1.11 µM.
On to `CCc1cc(-c2cccc(CN3CCC(O)CC3)n2)c(C)[nH]c1=O` [Example 182I, 5′-Ethyl-6-(4-hydroxy-piperidin-1-ylmethyl)-2′-methyl-1′H-[2,3′]bipyridinyl-6′-one], for which the IC50 came out at 8.61 µM.
In the case of `CCc1cc(-c2cccc(CN3CCN(C(C)=O)CC3)n2)c(C)[nH]c1=O` [Example 182J, 6-(4-Acetyl-piperazin-1-ylmethyl)-5′-ethyl-2′-methyl-1′H-[2,3′]bipyridinyl-6′-one], the IC50 is 14.6 µM.
Next, `CCc1cc(-c2cccc(CN3CCC(N4CCCC4)CC3)n2)c(C)[nH]c1=O` [Example 182K, 5′-Ethyl-2′-methyl-6-(4-pyrrolidin-1-yl-piperidin-1-ylmethyl)-1′H-[2,3′]bipyridinyl-6′-one]: 4.23 µM.
In the case of `CCc1cc(-c2ccc(C=NOCCN3CCCC3)o2)c(C)[nH]c1=O` [Example 199, 3-Ethyl-2-methyl-6-oxo-1,6-dihydropyridin-3-yl)furan-2-carbaldehyde O-(2-pyrrolidin-1-ylethyl)oxime hydrochloride], the IC50 came to 0.18 µM.
For the compound `CCc1cc(-c2ccc(C=NO)o2)c(C)[nH]c1=O` [Example 199A, 5-(5-Ethyl-2-methyl-6-oxo-1,6-dihydro-pyridin-3-yl)-furan-2-carbaldehyde oxime], the IC50 was 0.51 µM.
Next, `CCc1cc(-c2ccc(CO)o2)c(C)[nH]c1=O` [Example 200A, 3-Ethyl-5-(5-hydroxymethyl-furan-2-yl)-6-methyl-1H-pyridin-2-one]: 1.03 µM; `CCc1cc(-c2ccc(C(=O)N3CCN(c4ccccc4)CC3)o2)c(C)[nH]c1=O` [Example 201, 3-Ethyl-6-methyl-5-[5-(4-phenyl-piperazine-1-carbonyl)-furan-2-yl]-1H-pyridin-2-one]: 1.35 µM; `CCc1cc(-c2cccc(C(=O)NCCc3ccc([N+](=O)[O-])cc3)n2)c(C)[nH]c1=O` [Example 205, 5′-Ethyl-2′-methyl-6′-oxo-1′,6′-dihydro-[2,3′]bipyridinyl-6-carboxylic acid [2-(4-nitro-phenyl)-ethyl]-amide]: 0.57 µM.
In the case of `CCCCNC(=O)c1cccc(-c2cc(CC)c(=O)[nH]c2C)n1` [Example 206, 5′-Ethyl-2′-methyl-6′-oxo-1′,6′-dihydro-[2,3′]bipyridinyl-6-carboxylic acid butylamide], the IC50 amounted to 1.14 µM.
As for `CCc1cc(-c2cccc(C(=O)N3CCCC3)n2)c(C)[nH]c1=O` [Example 207, 5′-Ethyl-2′-methyl-6-(pyrrolidine-1-carbonyl)-1′H-[2,3′]bipyridinyl-6′-one], the IC50 came out at 4.72 µM.
Next, `CCc1cc(-c2ccc(C(=O)NCc3ccccn3)cn2)c(C)[nH]c1=O` [Example 208, 5′-Ethyl-2′-methyl-6′-oxo-1′,6′-dihydro-[2,3′]bipyridinyl-5-carboxylic acid (pyridin-2-ylmethyl)-amide]: 14.8 µM.
As to `CCCCNC(=O)c1ccc(-c2cc(CC)c(=O)[nH]c2C)nc1` [Example 209, 5′-Ethyl-2′-methyl-6′-oxo-1′,6′-dihydro-[2,3′]bipyridinyl-5-carboxylic acid butylamide], the IC50 amounted to 13 µM.
To `CCc1cc(-c2ccc(C(=O)N3CCC(O)C3)cn2)c(C)[nH]c1=O` (centres unmarked) [Example 210, 5′-Ethyl-5-(3-hydroxy-pyrrolidine-1-carbonyl)-2′-methyl-1′H-[2,3′]bipyridinyl-6′-one] belongs 12.1 µM; to `CCc1cc(-c2ccc(C(=O)N3CCCC3)cn2)c(C)[nH]c1=O` [Example 211, 5′-Ethyl-2′-methyl-5-(pyrrolidine-1-carbonyl)-1′H-[2,3′]bipyridinyl-6′-one], 8.6 µM; to `CCc1cc(-c2ccc(C(=O)NC3CCCC3)cn2)c(C)[nH]c1=O` [Example 212, 5′-Ethyl-2′-methyl-6′-oxo-1′,6′-dihydro-[2,3′]bipyridinyl-5-carboxylic acid cyclopentylamide], 12.9 µM.
Next, `CCc1cc(-c2cc(C(=O)NCCc3ccc([N+](=O)[O-])cc3)ccn2)c(C)[nH]c1=O` [Example 213, 5′-Ethyl-2′-methyl-6′-oxo-1′,6′-dihydro-[2,3′]bipyridinyl-4-carboxylic acid [2-(4-nitro-phenyl)-ethyl]-amide]: 0.21 µM.
To `CCc1cc(-c2cc(C(=O)N3CCCC3)ccn2)c(C)[nH]c1=O` [Example 214, 5′-Ethyl-2′-methyl-4-(pyrrolidine-1-carbonyl)-1′H-[2,3′]bipyridinyl-6′-one] belongs 1.4 µM; to `CCCCNC(=O)c1ccnc(-c2cc(CC)c(=O)[nH]c2C)c1` [Example 215, 5′-Ethyl-2′-methyl-6′-oxo-1′,6′-dihydro-[2,3′]bipyridinyl-4-carboxylic acid butylamide], 1.25 µM.
